# Test results published in BindingDB's records for patent US10660876 (Achillion Pharmaceuticals, 2020).
# Molecular target: Complement factor D (Homo sapiens, UniProt P00746)
# Test: Inhibition Assay
# Experimental: Human Factor D (purified from human serum, Complement Technology, Inc.) at 80 nM final concentration is incubated with test compound at various concentrations for 5 minutes at room temperature in 50 mM Tris, 1M NaCl, pH 7.5. A synthetic substrate Z-L-Lys-SBzl and DTNB (Ellman's reagent) are added to final concentrations of 100 µM each. Absorbance at 405 nm (A405) is recorded at 30 second intervals for 30 minutes using a microplate spectrophotometer. IC50 values are calculated by nonlinear regression of complement Factor D reaction rates as a function of test compound concentration.
# Complement factor D, sequence (P00746 whole entry): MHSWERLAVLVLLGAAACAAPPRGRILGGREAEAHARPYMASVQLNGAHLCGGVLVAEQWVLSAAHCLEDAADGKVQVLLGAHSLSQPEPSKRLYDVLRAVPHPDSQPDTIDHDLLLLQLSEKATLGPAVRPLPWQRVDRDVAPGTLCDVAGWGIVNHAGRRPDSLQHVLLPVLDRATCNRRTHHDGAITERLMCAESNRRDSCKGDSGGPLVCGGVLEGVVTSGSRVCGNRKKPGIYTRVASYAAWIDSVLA
row,SMILES,IC50
1,"CC(=O)c1cn(CC(=O)N2C[C@H](F)C[C@H]2C(=O)NCc2cccc(Cl)c2F)c2cc(N(CC(=O)N3C[C@H](F)C[C@H]3C(=O)NCc3cccc(Cl)c3F)S(C)(=O)=O)ccc12 [US10660876, Cmpd No. 1]",in the range around 5.5 µM
2,"CC(=O)c1cn(CC(=O)N2C[C@H](F)C[C@H]2C(=O)NCc2nc3ccccc3s2)c2ccc(Nc3cncnc3)cc12 [US10660876, Cmpd No. 16]",in the range around 5.5 µM
3,"CNC(=O)[C@@H]1C[C@@H](F)CN1C(=O)Cn1cc(C(C)=O)c2cc(Nc3cncnc3)ccc21 [US10660876, Cmpd No. 20]",in the range around 5.5 µM
4,"CC(=O)c1cn(CC(=O)N2C[C@H](F)C[C@H]2C(=O)Nc2ccccc2-n2nccc2C)c2ccc(Nc3cncnc3)cc12 [US10660876, Cmpd No. 30]",in the range around 5.5 µM
5,"CC(=O)c1cn(CC(=O)N2C[C@H](F)C[C@H]2C(=O)Nc2ccccc2-c2nc3ccccc3s2)c2ccc(Nc3cncnc3)cc12 [US10660876, Cmpd No. 32]",> 10 µM
6,"CC(=O)c1cn(CC(=O)N2C[C@H](F)C[C@H]2C(=O)Nc2nnc(-c3ccccc3Cl)s2)c2ccc(Nc3cncnc3)cc12 [US10660876, Cmpd No. 34]",in the range around 5.5 µM
7,"CC(=O)c1cn(CC(=O)N2C[C@H](F)C[C@H]2C(=O)N[C@H]2CCCC[C@@H]2O)c2ccc(Nc3cncnc3)cc12 [US10660876, Cmpd No. 36]",in the range around 5.5 µM
8,"CC(=O)c1cn(CC(=O)N2C[C@H](F)C[C@H]2C(=O)Nc2cccc(Cl)c2-n2cncn2)c2ccc(Nc3cncnc3)cc12 [US10660876, Cmpd No. 37]",in the range around 5.5 µM
9,"CC(=O)c1cn(CC(=O)N2C[C@H](F)C[C@H]2C(=O)Nc2ccccc2N2CCOC2=O)c2ccc(Nc3cncnc3)cc12 [US10660876, Cmpd No. 40]",in the range around 5.5 µM
10,"CC(=O)c1cn(CC(=O)N2C[C@H](F)C[C@H]2C(=O)Nc2nc(-c3c(C)nc4sccn34)cs2)c2ccc(Nc3cncnc3)cc12 [US10660876, Cmpd No. 49]",in the range around 5.5 µM
11,"CC(=O)c1cn(CC(=O)N2C[C@H](F)C[C@H]2C(=O)NC2CCc3c(F)ccc(F)c32)c2ccc(Nc3cncnc3)cc12 (some centres undefined) [US10660876, Cmpd No. 51]",in the range around 5.5 µM
12,"CC(=O)c1cn(CC(=O)N2C[C@H](F)C[C@H]2C(=O)Nc2ccc(CN)cc2)c2ccc(Nc3cncnc3)cc12 [US10660876, Cmpd No. 53]",in the range around 5.5 µM
13,"COc1cc(C)cc2c1OCCC2NC(=O)[C@@H]1C[C@@H](F)CN1C(=O)Cn1cc(C(C)=O)c2cc(Nc3cncnc3)ccc21 (some centres undefined) [US10660876, Cmpd No. 54]",in the range around 5.5 µM
14,"CC(=O)c1cn(CC(=O)N2C[C@H](F)C[C@H]2C(=O)Nc2c[nH]nc2-c2ccc(Cl)cc2Cl)c2ccc(Nc3cncnc3)cc12 [US10660876, Cmpd No. 55]",in the range around 5.5 µM
